Data on one compound can be found in patent US5795899A, “Soluble salts of 4-amino-2-(4,4-dimethylimidazolidin-2-on-1-yl) pyrimidine-5-carboxylic acid N-methyl-N-(3-trifluoromethylphenyl)-amide, a process for the preparation thereof, the use thereof as pharmaceuticals and starting materials” (Hoechst Aktiengesellschaft, priority 1992, dated 1998).

For one data set, the system named is LDL receptor mRNA. As to the kind of experiment: LDL receptor mRNA expression in vivo in rat livers (Northern blot). To be noted: 6 hours after single oral dose of 30 mg/kg, FIG. 1. On the procedure: Liver tissue was removed at the stated time after a single oral dose of 30 mg/kg of the hydrochloride of compound I and was shock-frozen in liquid nitrogen.
The Northern blot technique was used to determine the relative LDL receptor MRNA levels. The LDL receptor MRNA level is increased about 2.5-fold after six hours.
The mRNA was prepared by the method described by Chomczynski, P. and Sacchi, N. in Anal. Biochem. 162, 156 (1987). In the case of organs (such as, for example, liver), the deep-frozen tissue was previously homogenized in a mortar on dry ice, and the mRNA was further concentrated by means of oligo dT by standard methods (compare Sambrook, J., Fritsch, E. F. and Maniatis, T., Molecular Cloning, second edition, Cold Spring Harbor (1989); this collection of methods also includes descriptions of all the other relevant standard processes of molecular biology used here). […] The filters were subsequently exposed on Cronex 4 films (Dupont) in the presence of an intensifying screen at -70° C. overnight or for up to 14 days, and the hybridization signals were quantified from the intensity of blackening of the film using a commercially available laser densitometer. Subsequently, the quotient was determined from the intensity of the LDL receptor band and of the actin band as internal standard to correct for variations in yield. […]

The subject of data set [1] is LDL receptor mRNA in human hepatocytoma cell line HepG2. As to the kind of experiment: LDL receptor mRNA expression on HepG2 cells (Northern blot). It is filed as cell-based. To be noted: FIG. 2. On the procedure: The HepG2 cells were previously incubated in MEM standard medium which contained 10% fetal calf serum with and without hydrochloride of the compound I (10^-6 M) for 16 hours.
Lipoprotein-deficient serum (LPDS) was in this case prepared by ultracentrifugation by a standard process (Goldstein, J. L., Basu, S. K and Brown, M. S., Methods Enzymol. 98, 241 (1983)). The MRNA in the […] was prepared in analogy to the method described above.
The mRNA was prepared by the method described by Chomczynski, P. and Sacchi, N. in Anal. Biochem. 162, 156 (1987). […] The filters were subsequently exposed on Cronex 4 films (Dupont) in the presence of an intensifying screen at -70° C. overnight or for up to 14 days, and the hybridization signals were quantified from the intensity of blackening of the film using a commercially available laser densitometer. Subsequently, the quotient was determined from the intensity of the LDL receptor band and of the actin band as internal standard to correct for variations in yield. […]

Data set [2] concerns carbohydrate-induced hypertriglyceridemia. Kind of data set: Inhibition of carbohydrate-induced hypertriglyceridemia. It counts as in vivo, male Sprague-Dawley rats. To be noted: 1 mg/kg/day. On the procedure:
Groups of in each case 10 male Sprague-Dawley rats (supplied by the breeder Mollegard with a weight of 250-280 g) received on each of 4 consecutive days one administration of the compound dissolved in PEG 400 by gavage. In addition, after the 3rd administration and 8 and 24 hours later they received 2.5 g of fructose/kg, likewise by gavage. Moreover, after the 3rd administration of product, 50% strength fructose solution was offered to them as drinking water ad libitum, and the food was withdrawn. Retroorbital removal of blood, from which the serum was obtained for the triglyceride determination and VLDL preparation in the ultracentrifuge (flotation at d=1.006), took place 3 hours after the last product/fructose administration. The food received by the animals from 1 week before the 1st administration and up to the 3rd administration was a diet with 40% casein in the feed meal.
The animals develop, as a result of this treatment, a hypertriglyceridemia which approximately corresponds to Fredrickson phenotype IV in humans. The serum triglycerides of the normal animals increased from 0.54 to 1.1 mmol/l, and the VLDL triglycerides from 0.67 to 1.81.

For data set [3], the system named is mouse leukemia cells, L 1210. Kind of data set: MTT assay, inhibition of cell proliferation, L1210. It is filed as cell-based. To be noted: 72 hours incubation. On the procedure: (§1) The reduced inhibitory effect on cell proliferation was tested on exponentially growing animal (mouse leukemia cells, L 1210) and human (bronchial carcinoma cells, A 549; colon carcinoma cells, HT 29) tumor cells. This entailed the tumor cells being incubated in RPMI standard medium with various concentrations of the test substances for 72 hours. Cell incubations only in fresh medium served as control. Incubations were set up in quadruplet. […] After incubation for a further 7 to 24 hours, the cell supernatant was carefully removed and the formazan dye in the cells was solubilized by adding DMSO and measured quantitatively by photometry at 492 nm. The ratio of the extinction of the substance incubations to the control incubation was quantified. The coefficient of variation in each incubation series was less than 15%. The following Table 6 indicates the IC50 values (IC50 [μg/ml] is the concentration of the test substance per ml which is necessary for 50% inhibition) from these investigations.
(In general: Tetrazolium dyes change colour on reduction, which living cells bring about.)

Data set [4] concerns colon carcinoma cells, HT 29. Kind of data set: MTT assay, inhibition of cell proliferation, HT 29. It counts as cell-based. To be noted: Homo sapiens, 72 hours incubation. On the procedure: as §1
The test system of data set [5] is bronchial carcinoma cells, A 549. As to the kind of experiment: MTT assay, inhibition of cell proliferation, A 549. It counts as cell-based. To be noted: Homo sapiens, A549; 72 hours incubation. The method, then: as §1
The nature of the next data set: physchem. To be noted: water.

A word on the IC50: it is the concentration that inhibits the measured activity by half. The term solubility denotes the concentration that dissolves in the medium under given conditions.

Turning to `CN(C(=O)c1cnc(N2CC(C)(C)NC2=O)nc1N)c1cccc(C(F)(F)F)c1.Cl` [Compound I as hydrochloride, 4-amino-2-(4,4-dimethyl-2-oxo-1-imidazolidinyl)pyrimidine-5-carboxylic acid N-methyl-N-(3-trifluoromethylphenyl)amide hydrochloride], the “Solubility in water (in words)” value was “good solubility”. In the data set with LDL receptor mRNA, the “Increase in LDL receptor mRNA level in rat liver” value is listed as “about 2.5 -fold”. The “Overinduction of LDL receptor mRNA in lipoprotein-deficient serum compared with whole serum” value in data set [1] (10^-6 M, 16 hours) is recorded as “further by the same factor as was observed on stimulation in whole serum”. In addition, the “Dependence of LDL receptor mRNA stimulation on cholesterol supply level” value in data set [1] (whole serum and lipoprotein-deficient serum) is recorded as “does not depend on the cholesterol "supply level"”. Besides, in data set [2], the “Inhibition of the increase in the VLDL triglycerides (in words)” value was “almost one half”. The same compound returned a 50% inhibitory concentration (IC50) in data set [3] of 13.4 µg/mL. For the same compound, the half-inhibitory concentration (IC50) in data set [4] was greater than 100 µg/mL. Also, the concentration for half-maximal inhibition (IC50) in data set [5] is greater than 100 µg/mL. For the setting “Table 2, Temp. [°C]: hydrochloride 25.0, nitrate 23.5, p-toluenesulfonate 23.2, hydrogen (R,R)-tartrate 24.6, free base 24.8”, the “1 part by mass dissolves in . . . parts of H2 O” value is reported as 1.33 parts of H2 O. This compound also showed a solubility in “physchem” of 430 mg/mL.
